Assay results: ChEMBL document CHEMBL1151413 (J Nat Prod, 1983)
Calls of active or inactive are those of the source. The calls are words filed in the database; no cut-off is given here.

Legend:
Ileum [1] = experiment: Inhibition of acetylcholine-induced guinea pig ileum contraction at 5 ug/ml after 15 mins; assay type: functional, tissue-based; settings: Cavia porcellus
Ileum [2] = experiment: Inhibition of acetylcholine-induced guinea pig ileum contraction at 10 ug/ml after 15 mins; assay type: functional, tissue-based; settings: Cavia porcellus
Ileum [3] = experiment: Inhibition of acetylcholine-induced guinea pig ileum contraction assessed as residual activity at 5 ug/ml after 30 to 50 mins relative to control; assay type: functional, Cavia porcellus
Ileum [4] = experiment: Inhibition of acetylcholine-induced guinea pig ileum contraction assessed as residual activity at 10 ug/ml after 30 to 50 mins relative to control; assay type: functional, Cavia porcellus
Ileum [5] = experiment: Inhibition of histamine-induced guinea pig ileum contraction; settings: Cavia porcellus, read-out: pA2 (converted)
Ileum [6] = experiment: Inhibition of BaCl2-induced guinea pig ileum contraction at 10 ug/ml after 15 mins; assay type: functional, tissue-based; settings: Cavia porcellus
Ileum [7] = experiment: Inhibition of acetylcholine-induced guinea pig ileum contraction; assay type: functional, tissue-based; settings: Cavia porcellus, TDE = time-dependent effect
Ileum [8] = experiment: Inhibition of coaxially-induced guinea pig ileum contraction at 10 ug/ml; assay type: functional, tissue-based; settings: Cavia porcellus, TDE = time-dependent effect
Platelet [9] = experiment: Antiaggregation activity against ADP-induced rabbit platelet aggregation at 10 ug/ml; assay type: functional, cell-based; settings: Oryctolagus cuniculus, TDE = time-dependent effect
Platelet [10] = experiment: Antiaggregation activity against arachidonic acid-induced rabbit platelet aggregation at 10 ug/ml; assay type: functional, cell-based; settings: Oryctolagus cuniculus, TDE = time-dependent effect
Platelet [11] = experiment: Disaggregation activity against ADP-induced rabbit platelet aggregation at 10 ug/ml relative to ADP response; assay type: functional, cell-based; settings: Oryctolagus cuniculus
Platelet [12] = experiment: Disaggregation activity against arachidonic acid-induced rabbit platelet aggregation at 10 ug/ml relative to arachidonic acid response; assay type: functional, cell-based; settings: Oryctolagus cuniculus

Q: Which results are given for `C=C[C@@]12COC(=O)C(=C)[C@@H]1[C@H]1OC(=O)C(=C)[C@@H]1[C@@H](O)C2` [VERNOLEPIN]?
A: Activity (Ileum [1]): inactive; Activity (Ileum [2]): inactive; Activity (Ileum [3]): <40%; Activity (Ileum [4]): <20%; Kb (Ileum [5]): 2.45 µM; Activity (Ileum [6]): inactive; Activity (Ileum [7]): tde; Activity (Ileum [8]): tde; Activity (Platelet [9]): tde; Activity (Platelet [10]): tde; Activity (Platelet [11]): Active; Activity (Platelet [12]): Active
